Results published in the supplement of paper PMC12463676, “Small-molecule dissolution of stress granules by redox modulation benefits ALS models” (Nature Chemical Biology, 2025).

What was measured:
lipoamide = compound: NC(=O)CCCCC1CCSS1 [lipoamide]; experiment: thermal stability z-score vs DMSO; higher = more thermally stabilized by treatment; details: HeLa, lipoamide concentration 100 µM
Protocol: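 Cellular thermal proteome profiling in HeLa cells. Cells were treated with 100 µM lipoamide for 1 h, with or without 1 mM arsenate for a further 1 h, then heated to ten temperatures (37-66.3 °C), and soluble protein was quantified by TMT mass spectrometry relative to 0.1% DMSO controls. The thermal stability score (sum of log2 fold changes minus the abundance score) was transformed to a z-score; mean of n = 3 experiments.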

potassium arsenate = compound: O=[As]([O-])(O)O.[K+] [potassium arsenate]; experiment: as above; details: HeLa; arsenate concentration 1 mM
Protocol: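 Cellular thermal proteome profiling in HeLa cells treated with 1 mM arsenate for 1 h (DMSO pretreatment), heated to ten temperatures (37-66.3 °C). Soluble protein was quantified by TMT mass spectrometry relative to DMSO controls; the thermal stability score was transformed to a z-score; mean of n = 3 experiments.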

[1] = arsenate co-treatment: 1 mM arsenate 1 h
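Note: each temperature applied for 3 min, abundance score taken as mean log2 fold change at the two lowest temperatures, z-score obtained by mean subtraction and division by SD.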

Chain of UniProt Q9NXE4 (Q9NXE4 whole entry): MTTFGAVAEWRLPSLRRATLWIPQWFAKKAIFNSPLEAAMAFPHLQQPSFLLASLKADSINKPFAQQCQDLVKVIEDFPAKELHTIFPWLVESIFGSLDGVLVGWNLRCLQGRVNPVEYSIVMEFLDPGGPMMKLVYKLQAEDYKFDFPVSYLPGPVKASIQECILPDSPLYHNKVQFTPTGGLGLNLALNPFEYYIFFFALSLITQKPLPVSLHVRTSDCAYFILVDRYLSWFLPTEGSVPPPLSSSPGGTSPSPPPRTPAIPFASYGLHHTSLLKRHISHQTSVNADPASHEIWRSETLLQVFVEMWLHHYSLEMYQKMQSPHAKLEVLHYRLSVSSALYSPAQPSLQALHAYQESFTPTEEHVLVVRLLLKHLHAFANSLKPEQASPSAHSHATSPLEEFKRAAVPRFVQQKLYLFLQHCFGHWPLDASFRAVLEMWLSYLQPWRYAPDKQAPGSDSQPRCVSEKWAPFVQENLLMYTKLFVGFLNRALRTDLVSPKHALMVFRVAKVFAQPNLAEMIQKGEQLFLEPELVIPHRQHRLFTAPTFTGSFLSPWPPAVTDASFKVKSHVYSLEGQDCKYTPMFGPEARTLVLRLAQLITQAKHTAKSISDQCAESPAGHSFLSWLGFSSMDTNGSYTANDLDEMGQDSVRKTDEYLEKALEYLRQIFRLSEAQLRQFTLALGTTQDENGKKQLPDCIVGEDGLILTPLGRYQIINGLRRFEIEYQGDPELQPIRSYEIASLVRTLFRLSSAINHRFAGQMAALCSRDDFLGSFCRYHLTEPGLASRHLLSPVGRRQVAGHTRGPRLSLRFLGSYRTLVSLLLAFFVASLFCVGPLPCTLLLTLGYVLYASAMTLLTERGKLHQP
Chain of UniProt P30622 (P30622 whole entry): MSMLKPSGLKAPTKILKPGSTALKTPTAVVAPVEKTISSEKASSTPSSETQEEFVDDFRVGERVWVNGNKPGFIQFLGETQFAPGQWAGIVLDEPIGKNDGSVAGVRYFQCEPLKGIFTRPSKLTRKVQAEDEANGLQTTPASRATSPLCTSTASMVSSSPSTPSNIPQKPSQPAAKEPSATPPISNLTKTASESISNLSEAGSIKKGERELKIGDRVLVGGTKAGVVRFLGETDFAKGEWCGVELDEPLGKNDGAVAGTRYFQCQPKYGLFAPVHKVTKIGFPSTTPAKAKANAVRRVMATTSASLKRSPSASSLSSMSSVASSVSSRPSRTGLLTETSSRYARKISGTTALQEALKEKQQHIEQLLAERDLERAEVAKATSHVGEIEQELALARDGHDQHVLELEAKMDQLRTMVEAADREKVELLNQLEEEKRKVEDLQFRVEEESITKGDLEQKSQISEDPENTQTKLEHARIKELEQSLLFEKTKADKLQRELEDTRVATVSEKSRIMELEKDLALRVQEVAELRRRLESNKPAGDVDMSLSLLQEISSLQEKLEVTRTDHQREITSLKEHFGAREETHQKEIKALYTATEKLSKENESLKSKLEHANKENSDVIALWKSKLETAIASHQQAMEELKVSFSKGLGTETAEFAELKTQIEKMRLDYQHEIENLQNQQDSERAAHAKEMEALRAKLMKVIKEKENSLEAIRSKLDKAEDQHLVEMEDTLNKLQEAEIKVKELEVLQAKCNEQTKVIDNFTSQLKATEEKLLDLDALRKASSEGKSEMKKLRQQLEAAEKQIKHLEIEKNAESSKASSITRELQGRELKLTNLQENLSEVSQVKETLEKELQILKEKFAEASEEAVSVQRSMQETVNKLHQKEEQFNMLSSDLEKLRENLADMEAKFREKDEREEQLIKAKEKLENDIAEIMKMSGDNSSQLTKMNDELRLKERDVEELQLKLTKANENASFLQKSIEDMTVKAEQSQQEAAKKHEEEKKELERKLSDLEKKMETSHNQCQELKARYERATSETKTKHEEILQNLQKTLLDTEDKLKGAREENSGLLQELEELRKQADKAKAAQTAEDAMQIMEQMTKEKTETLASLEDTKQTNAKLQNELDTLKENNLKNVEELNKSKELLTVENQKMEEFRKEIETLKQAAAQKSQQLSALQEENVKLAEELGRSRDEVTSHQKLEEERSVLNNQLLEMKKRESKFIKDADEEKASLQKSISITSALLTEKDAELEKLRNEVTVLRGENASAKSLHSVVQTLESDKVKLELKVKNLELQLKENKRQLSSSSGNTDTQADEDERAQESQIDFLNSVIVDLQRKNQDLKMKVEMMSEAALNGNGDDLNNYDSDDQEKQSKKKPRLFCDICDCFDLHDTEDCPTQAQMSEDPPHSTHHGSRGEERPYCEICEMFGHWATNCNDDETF
Chain of UniProt Q9NYU1 (Q9NYU1 whole entry): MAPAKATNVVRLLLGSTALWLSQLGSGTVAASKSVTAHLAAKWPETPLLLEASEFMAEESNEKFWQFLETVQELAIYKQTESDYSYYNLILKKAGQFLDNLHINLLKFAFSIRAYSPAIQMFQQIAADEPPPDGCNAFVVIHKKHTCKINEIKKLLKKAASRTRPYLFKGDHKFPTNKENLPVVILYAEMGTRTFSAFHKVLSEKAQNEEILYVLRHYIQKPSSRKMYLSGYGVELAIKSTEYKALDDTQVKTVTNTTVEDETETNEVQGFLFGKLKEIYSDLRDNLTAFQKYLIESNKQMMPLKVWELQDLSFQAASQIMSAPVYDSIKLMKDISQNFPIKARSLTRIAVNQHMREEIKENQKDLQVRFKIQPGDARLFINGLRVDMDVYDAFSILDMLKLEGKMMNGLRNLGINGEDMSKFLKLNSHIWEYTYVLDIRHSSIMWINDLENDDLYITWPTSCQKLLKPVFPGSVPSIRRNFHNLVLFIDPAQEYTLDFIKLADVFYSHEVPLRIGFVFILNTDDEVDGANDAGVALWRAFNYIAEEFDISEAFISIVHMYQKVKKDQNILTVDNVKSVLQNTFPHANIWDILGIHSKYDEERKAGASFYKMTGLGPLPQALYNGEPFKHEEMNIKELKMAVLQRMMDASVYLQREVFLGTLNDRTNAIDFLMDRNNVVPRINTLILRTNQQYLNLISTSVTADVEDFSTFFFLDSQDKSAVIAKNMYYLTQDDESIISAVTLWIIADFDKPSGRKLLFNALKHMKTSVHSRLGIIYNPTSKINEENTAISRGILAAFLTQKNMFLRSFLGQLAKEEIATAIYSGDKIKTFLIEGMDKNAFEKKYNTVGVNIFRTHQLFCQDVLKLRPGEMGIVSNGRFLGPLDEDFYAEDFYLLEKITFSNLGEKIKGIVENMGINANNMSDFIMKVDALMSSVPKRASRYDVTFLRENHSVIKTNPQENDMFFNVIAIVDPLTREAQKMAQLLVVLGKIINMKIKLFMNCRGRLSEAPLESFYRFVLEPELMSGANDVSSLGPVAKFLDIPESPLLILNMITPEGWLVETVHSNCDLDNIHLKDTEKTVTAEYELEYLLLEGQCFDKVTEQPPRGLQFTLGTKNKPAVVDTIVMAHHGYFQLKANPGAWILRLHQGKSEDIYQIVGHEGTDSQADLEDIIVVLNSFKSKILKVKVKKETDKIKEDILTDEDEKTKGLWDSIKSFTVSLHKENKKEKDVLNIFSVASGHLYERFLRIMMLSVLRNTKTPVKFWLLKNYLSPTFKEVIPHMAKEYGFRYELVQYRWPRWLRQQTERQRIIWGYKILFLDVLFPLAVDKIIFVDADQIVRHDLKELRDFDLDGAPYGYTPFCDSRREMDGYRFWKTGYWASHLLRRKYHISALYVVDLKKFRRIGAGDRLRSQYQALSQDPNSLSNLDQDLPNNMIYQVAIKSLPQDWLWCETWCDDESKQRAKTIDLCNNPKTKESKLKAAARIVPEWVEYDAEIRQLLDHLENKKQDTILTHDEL
Chain of UniProt P55145 (P55145 whole entry): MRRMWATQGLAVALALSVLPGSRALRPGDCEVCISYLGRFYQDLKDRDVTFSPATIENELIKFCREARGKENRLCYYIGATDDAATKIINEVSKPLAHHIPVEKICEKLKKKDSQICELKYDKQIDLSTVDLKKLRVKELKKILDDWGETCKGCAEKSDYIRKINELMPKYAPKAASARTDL
Chain of UniProt Q8NDH3 (Q8NDH3 whole entry): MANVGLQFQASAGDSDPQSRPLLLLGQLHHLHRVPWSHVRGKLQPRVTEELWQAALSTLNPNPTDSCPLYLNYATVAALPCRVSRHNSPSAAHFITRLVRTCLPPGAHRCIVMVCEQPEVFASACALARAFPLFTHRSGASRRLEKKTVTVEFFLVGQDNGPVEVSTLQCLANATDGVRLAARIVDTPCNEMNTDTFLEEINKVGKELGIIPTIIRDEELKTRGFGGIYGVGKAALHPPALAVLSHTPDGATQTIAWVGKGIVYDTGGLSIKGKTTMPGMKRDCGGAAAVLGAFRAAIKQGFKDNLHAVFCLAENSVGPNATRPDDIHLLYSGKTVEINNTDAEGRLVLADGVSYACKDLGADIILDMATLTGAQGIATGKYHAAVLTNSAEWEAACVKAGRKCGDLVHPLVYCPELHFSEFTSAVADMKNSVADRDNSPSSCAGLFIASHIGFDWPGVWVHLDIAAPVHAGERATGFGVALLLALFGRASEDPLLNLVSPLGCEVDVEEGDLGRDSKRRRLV
Chain of UniProt Q96B54 (Q96B54 whole entry): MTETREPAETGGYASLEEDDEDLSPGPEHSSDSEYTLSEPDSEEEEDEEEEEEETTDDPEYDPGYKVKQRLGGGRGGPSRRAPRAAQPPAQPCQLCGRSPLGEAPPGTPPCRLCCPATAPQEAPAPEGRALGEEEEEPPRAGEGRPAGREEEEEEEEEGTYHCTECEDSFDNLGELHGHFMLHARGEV
Chain of UniProt Q9BW83 (Q9BW83 whole entry): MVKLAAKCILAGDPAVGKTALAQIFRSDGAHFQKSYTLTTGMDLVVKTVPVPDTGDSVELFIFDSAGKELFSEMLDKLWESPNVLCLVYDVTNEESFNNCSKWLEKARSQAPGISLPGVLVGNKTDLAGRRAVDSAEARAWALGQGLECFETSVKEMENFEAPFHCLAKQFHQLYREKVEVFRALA
Chain of UniProt P24311 (P24311 whole entry): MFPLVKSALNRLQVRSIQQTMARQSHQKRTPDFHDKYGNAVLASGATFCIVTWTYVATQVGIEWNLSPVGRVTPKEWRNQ

Target	thermal stability z-score (lipoamide; [1])	thermal stability z-score (lipoamide; arsenate co-treatment: none)	thermal stability z-score (potassium arsenate)
ANKS1A (UniProt Q92625)	-0.553	0.198	0.294
PRKAG1 (UniProt P54619)	0.174	0.0278	0.942
MIER1 (UniProt Q8N108)	1.22	1.38	0.0984
EVL (UniProt Q9UI08)	-0.0697	0.187	-0.462
TP53BP1 (UniProt Q12888)	1.4	0.891	-0.0759
UVRAG (UniProt Q9P2Y5)	-0.0868	-0.247	-0.352
EMC4 (UniProt Q5J8M3)	-0.342	0.294	0.26
CISD2 (UniProt Q8N5K1)	0.556	0.316	-0.581
PSMC5 (UniProt P62195)	-0.299	-0.397	-0.667
CNDP2 (UniProt Q96KP4)	0.517	0.0712	0.248
RNF114 (UniProt Q9Y508)	-0.534	-0.407	-1.6
DNAJC9 (UniProt Q8WXX5)	0.604	0.566	-2.09
BPHL (UniProt Q86WA6)	-0.428	-0.368	-1.21
CEP83 (UniProt Q9Y592)	0.829	1.19	-0.498
PSMA7 (UniProt O14818)	0.939	0.898	0.38
MRPS21 (UniProt P82921)	-0.28	-0.78	1.03
QRSL1 (UniProt Q9H0R6)	-0.401	-2.57	0.708
SMPD4 (UniProt Q9NXE4)	0.624	0.149	1.11
RCN1 (UniProt Q15293)	-1.02	-0.814	0.52
UGGT2 (UniProt Q9NYU1)	-1.81	-1.31	0.289
ANKRD50 (UniProt Q9ULJ7)	-0.124	0.078	0.0328
IPPK (UniProt Q9H8X2)	0.199	0.487	0.0883
TFRC (UniProt P02786)	0.193	0.202	0.144
LRRFIP1 (UniProt Q32MZ4)	0.409	0.475	0.228

Target	thermal stability z-score (lipoamide; [1])	thermal stability z-score (lipoamide; arsenate co-treatment: none)	thermal stability z-score (potassium arsenate)
TTC9C (UniProt Q8N5M4)	-0.988	-0.401	-0.649
GATSL2 (UniProt A6NHX0)	0.724	-1.44	-0.242
NIF3L1 (UniProt Q9GZT8)	-0.14	-0.407	0.115
RPL35 (UniProt P42766)	0.579	0.674	-0.812
LRRC47 (UniProt Q8N1G4)	0.175	0.38	1.06
SIN3B (UniProt O75182)	0.0836	0.279	-0.327
ACOX1 (UniProt Q15067)	0.516	0.379	0.389
RBM17 (UniProt Q96I25)	0.528	0.441	0.243
TTYH3 (UniProt Q9C0H2)	0.027	0.0475	-0.648
BRD2 (UniProt P25440)	-0.0745	0.075	-0.153
RAB2A (UniProt P61019)	0.405	0.206	0.296
FAM3A (UniProt P98173)	0.0593	-0.109	0.363
FRRS1 (UniProt Q6ZNA5)	-0.316	-0.157	0.586
MANF (UniProt P55145)	0.0932	-0.0959	0.0791
RPS26 (UniProt P62854)	0.0208	0.263	-0.743
TMEM30A (UniProt Q9NV96)	-0.45	-0.161	-0.845
MARCH5 (UniProt Q9NX47)	0.842	-0.0503	0.411
BRD8 (UniProt Q9H0E9)	0.111	-0.0134	-1.06
NKIRAS2 (UniProt Q9NYR9)	0.0549	-0.0133	0.137
STOML2 (UniProt Q9UJZ1)	-0.324	0.0393	-0.147
FASTKD3 (UniProt Q14CZ7)	-0.0188	-0.107	-0.00397
BLVRB (UniProt P30043)	0.863	-0.0398	1.14
EFHD2 (UniProt Q96C19)	0.403	0.677	-0.223
SEC23A (UniProt Q15436)	-0.106	0.228	-0.0157

Target	thermal stability z-score (lipoamide; [1])	thermal stability z-score (lipoamide; arsenate co-treatment: none)	thermal stability z-score (potassium arsenate)
NRAS (UniProt P01111)	0.00516	-0.21	-0.271
CFAP97 (UniProt Q9P2B7)	-1	-0.518	-0.864
RAC1 (UniProt P63000)	0.154	-0.0299	0.562
EDEM2 (UniProt Q9BV94)	0.18	0.234	0.127
CLIP1 (UniProt P30622)	-0.0952	0.0784	-0.345
NDFIP1 (UniProt Q9BT67)	1.07	0.0758	1.41
TSPYL1 (UniProt Q9H0U9)	-0.00828	-0.153	0.0344
ALKBH5 (UniProt Q6P6C2)	1.79	-0.205	2.96
COX7B (UniProt P24311)	-0.0929	-0.0319	-0.0702
SSR2 (UniProt P43308)	0.441	-0.158	0.191
STXBP2 (UniProt Q15833)	-0.105	0.167	0.225
ZNF428 (UniProt Q96B54)	1.64	2.65	1.85
IFT27 (UniProt Q9BW83)	0.856	0.225	0.151
VARS2 (UniProt Q5ST30)	-0.824	-0.273	0.279
NPEPL1 (UniProt Q8NDH3)	-0.24	-0.808	1.2
MYO19 (UniProt Q96H55)	0.0427	0.347	-0.139
SRSF3 (UniProt P84103)	1.69	0.987	-0.485
MAPKAP1 (UniProt Q9BPZ7)	0.13	-0.0501	0.0626
CYFIP2 (UniProt Q96F07)	0.325	0.825	0.312
DYNC1H1 (UniProt Q14204)	-0.0235	0.118	-0.164
GPD1L (UniProt Q8N335)	0.106	-0.108	-0.935
DDHD1 (UniProt Q8NEL9)	-0.143	-0.142	0.0595
ZDHHC5 (UniProt Q9C0B5)	-0.762	0.0706	-0.438
